“Also recorded” adds a separate entry of the source. Marks after values point to notes of the source that are not given here.
Assays:
Assay type in all cases: cell-based, human
YAP mRNA = assay: Relative quantitative PCR for YAP mRNA in primary HTM cells on hydrogels or TCP after Lat-B; conditions: for Relative quantification of YAP mRNA (mean ± SEM): 2 μM Lat-B, 1 h after treatment, TCP DMSO = 1.0; for YAP mRNA expression versus DMSO: HTM 424 donor (FIG. 8)
Protocol: (§1) Hydrogel Fabrication. Polyacrylamide hydrogels mimicking the stiffness of the normal (5 kPa) and glaucomatous (75 kPa) HTM were prepared utilizing previously described procedures (McKee et al., 2011; Wood et al., 2011b). Briefly, hydrogels were fabricated and then sterilized with ultraviolet light and rinsed every 24 hours for at least 72 hours in Dulbecco's phosphate buffered solution (DPBS, Hyclone, Logan, Utah) to fully hydrate the hydrogels and to ensure removal of monomeric acrylamide since free acrylamide has been previously shown to disrupt cytoskeletal structure (Arocena, 2006). Following hydration, the hydrogels (10 mm) were adhered to TCP, stored in HTM cell medium, DME/F-12 medium containing 2.5 mM L-glutamine supplemented with 1% penicillin-streptomycin with amphotericin b (Lonza, Walkerville, Md.) and 10% fetal bovine serum (Atlanta Biologicals, Lawrence, Ga.), for 24 hrs and coated with a proprietary fibronectin/collagen (FNC) mixture (AthenaES, Baltimore, Md.) for 20 minutes. The elastic modulus of the hydrogels used were previously validated with atomic force microscopy at 4±2 kPa and 71±5 kPa for the 5 and 75 kPa gels respectively (McKee et al., 2011; Radmacher et al., 1992).
(§2) HTM Cell Isolation and Culture. Primary HTM cells were isolated from corneoscleral rims considered unsuitable for transplant from donors with no prior history of ophthalmic disease as previously described (McKee et al., 2011; Rhee et al., 2003; Wood et al., 2011b). Isolated cells were cultured in HTM cell medium and all studies were conducted using cells prior to the eighth passage. HTM cells were plated at a density of 1.5 ×105 on FNC-coated TCP and 75 kPa hydrogels and 2.5×105 on FNC-coated 5 kPa hydrogels for 24 h prior to Lat-B treatment. The 5 kPa hydrogels were plated a higher density than the other substrates because HTM cells proliferate more slowly on the 5 kPa hydrogels (Wood et al., 2011a), and to ensure that there was enough mRNA present to perform PCR.
(§3) Latrunculin-B Treatment. Lyophilized Lat-B (Cal Biochem, La Jolla, Calif.) was re-suspended to a final concentration of 2.5 mM in dimethyl sulfoxide (DMSO) (Fisher, Pittsburgh, Pa.). Fresh solutions of 2.0 μM Lat-B were prepared in serum free DPBS for all experiments. Control samples were treated with an equivalent concentration of DMSO in serum free DPBS.
(§4) RNA Extraction and Quantitative Real-Time PCR. One hour after treatment with Lat-B or DMSO, RNA was extracted using the Qiagen RNeasy kit following the manufacturer's protocol (Qiagen, Valencia, Calif.). […] The cycle threshold (Ct) ranges were 11-22 for 18S, 23-27 for YAP, 23-34 for WWTR1, 27-32 for 14-3-3σ, 21-30 for CTGF and 17-23 for PAI-1. The 18S ribosomal RNA served as a reference. […] In order to control for slight variations in the amount of RNA loaded into the PCR reactions, the difference in cycle threshold (ΔCt) between the gene of interest (e.g. YAP) and the average cycle threshold (Ct) of the house keeping gene, 18S (ran in triplicate) were calculated. By calculating the difference in ΔCt between an experimental condition and the control condition (TCP DMSO), the experimental data was normalized to the control data. Ratios with respect to this control were calculated for all other values. The protein TAZ is encoded by the WWTR1 gene, for ease of reading, the mRNA obtained from the WWTR1 gene is designated as TAZ mRNA.

14-3-3σ mRNA = assay: Relative quantitative PCR for 14-3-3σ mRNA in primary HTM cells on hydrogels or TCP after Lat-B; conditions: for Relative quantification of 14-3-3σ mRNA (mean ± SEM): 2 μM Lat-B, 1 h after treatment, TCP DMSO = 1.0; for 14-3-3σ mRNA expression versus DMSO: HTM 424 donor (FIG. 11); for level of 14-3-3σ mRNA: Example 3 (FIG. 16)
Protocol: as §1, §2, §3, §4

TAZ mRNA = assay: qPCR for TAZ (WWTR1) mRNA in primary HTM cells after Lat-B
Protocol: (§5) Hydrogel Fabrication. Polyacrylamide hydrogels mimicking the stiffness of the normal (5 kPa) and glaucomatous (75 kPa) HTM were prepared utilizing previously described procedures (McKee et al., 2011; Wood et al., 2011b). Briefly, hydrogels were fabricated and then sterilized with ultraviolet light and rinsed every 24 hours for at least 72 hours in Dulbecco's phosphate buffered solution (DPBS, Hyclone, Logan, Utah) to fully hydrate the hydrogels and to ensure removal of monomeric acrylamide since free acrylamide has been previously shown to disrupt cytoskeletal structure (Arocena, 2006). […]
(§6) RNA Extraction and Quantitative Real-Time PCR. […] In order to control for slight variations in the amount of RNA loaded into the PCR reactions, the difference in cycle threshold (ΔCt) between the gene of interest (e.g. YAP) and the average cycle threshold (Ct) of the house keeping gene, 18S (ran in triplicate) were calculated. […] Ratios with respect to this control were calculated for all other values. The protein TAZ is encoded by the WWTR1 gene, for ease of reading, the mRNA obtained from the WWTR1 gene is designated as TAZ mRNA.

CTGF mRNA = assay: qPCR for CTGF mRNA in primary HTM cells after Lat-B; conditions: stiff (75 kPa) hydrogels, 3 donors, p=0.02
Protocol: as §5, §6

PAI-1 mRNA = assay: qPCR for PAI-1 mRNA in primary HTM cells after Lat-B; conditions: 75 kPa hydrogels, all 3 donors
Protocol: as §5, §6

YAP [1] = assay: YAP immunofluorescence, nuclear/cytoplasmic localization in HTM cells after Lat-B; conditions: Lat-B vs DMSO, one hour after treatment
Protocol: Fixation and Immunofluoresence. One hour after treatment with Lat-B or DMSO, the cells were rinsed twice with warm DPBS and fixed in warm DPBS with 4% paraformaldehyde (Sigma-Aldrich, St. Louis, Mo.) for 20 min. They were rinsed twice more and permeabilized in DPBS with 0.5% Triton-X100 (Sigma-Aldrich, St. Louis, Mo.). They were rinsed and stored in DPBS until staining Rabbit anti-YAP (H-125, Santa Cruz Biotechnology, Santa Cruz, Calif.) was diluted in PBS containing 0.2% A-type cold fish gelatin (Sigma-Aldrich, St. Louis, Mo.) as a blocking agent. After primary staining, cells were rinsed twice in PBS. Dylight 594-conjugated goat anti-rabbit IgG (Thermo Scientific Pierce, Rockford, Ill.) was similarly diluted. After secondary staining, the cells were again rinsed, counterstained with DAPI (Life Technologies, Carlsbad, Calif.), rinsed a final time, and stored in PBS for imaging. Cells were imaged on an Axiovert 200 M (Carl Zeiss AG, Oberkochen, Germany) inverted microscope with a 20× objective. To mitigate background signal, images were filtered with a 77.5 μm rolling ball background and local median filtering (ImageJ, NIH, Bethesda, Md.).

myocilin (MYOC) mRNA = assay: Myocilin mRNA in HTM cells on hydrogels or TCP after Lat B
Protocol: (§7) Materials and methods similar to those in Examples 1 and 2 were used. Alternatively or additionally, at least some of the following methods were or can be used for the experiments described hereafter.
(§8) Cell Culture. Primary HTM cells is obtained from normal human donor corneoscleral rims deemed not suitable for transplant (50). HTM cells are cultured in DMEM/F12 medium with 10% fetal bovine serum. Only cells before the 7th passage are used to conduct these studies. Only normal HTM cells are used because growth of cells from glaucomatous HTM is generally not robust enough to guarantee a successful completion of the experiment (51-54). Cells are plated onto hydrogels with Young's moduli of 5 kPa (homeomimetic) or 75 kPa (pathomimetic) that are fabricated to fit in a single well of a standard 6 well culture plate with 300,000 cells per surface. The cells are allowed to attach to the surfaces for 24 hours prior to subsequent experimentation.
(§9) Fabrication of Hydrogel Substrates. Hydrogels are composed of 5.8% acrylamide/0.2% bisacrylamide (5 kPa) or 17.4% acrylamide/0.6% bisacrylamide (75 kPa). Each of the gels contains 4% (v/v) acrylamidoisopropyl trimethyl ammonium chloride. After polymerization, the gels are stored in phosphate buffered saline for two days to allow maximal swelling. One day prior to seeding of the cells on the hydrogels, culture medium with 10% fetal bovine serum is added to the gel to allow the hydrogel to be coated with the various proteins and components present in the serum. The Young's moduli of the hydrogels have been validated by atomic force microscopy (14, 55).
(§10) Real-Time PCR. Real-time PCR is conducted with 70 ng of mRNA using a StepOne PCR machine. Reverse transcription is done for 30 minutes at 50° C. and subsequent PCR is done for 40 cycles of 15 seconds at 95° C. and 1 minute at 60° C.

SPARC mRNA = SPARC mRNA in HTM cells on hydrogels or TCP after Lat B
Protocol: as §7, §8, §9, §10

HSP90 = assay: Amount of HSP90 in HTM cells after 17-allylamino-17-demethoxygelanamycin; conditions: 25 nM
YAP [2] = assay: Expression of YAP in HTM cells after 17-allylamino-17-demethoxygelanamycin; conditions: 25 nM
[3] = HTM cells after Lat B treatment (Example 3)
[4] = homeo- and pathomimetic hydrogels, Lat B 30 minutes, seven hours recovery, listed as Lat B
[5] = homeo- and pathomimetic hydrogels, Lat B 30 minutes, seven hours recovery, listed as Latrunculin B
[6] = tissue culture plastic (GPa), after Lat B treatment

## C/C1=C/C(=O)O[C@@H]2C[C@@H](CC[C@H](C)/C=C\CC1)O[C@@](O)([C@@H]1CSC(=O)N1)C2 [Lat-B, Latrunculin-B]
YAP mRNA; 75 kPa hydrogels, one hour after treatment, all three donors, p<0.05
  YAP mRNA versus DMSO: significantly less
YAP mRNA; HTM 211 cells, 5 kPa hydrogel
  Relative quantification of YAP mRNA (mean ± SEM): 0.33 ± 0.01^a ^
YAP mRNA; HTM 211 cells, 75 kPa hydrogel
  Relative quantification of YAP mRNA (mean ± SEM): 0.06 ± 0.01^b, †
YAP mRNA; HTM 211 cells, TCP (>1 GPa)
  Relative quantification of YAP mRNA (mean ± SEM): 0.48 ± 0.0^c, †
YAP mRNA; HTM 424 cells, 5 kPa hydrogel
  Relative quantification of YAP mRNA (mean ± SEM): 0.79 ± 0.06^a, †
YAP mRNA; HTM 424 cells, 75 kPa hydrogel
  Relative quantification of YAP mRNA (mean ± SEM): 0.59 ± 0.05^a, †
YAP mRNA; HTM 424 cells, TCP (>1 GPa)
  Relative quantification of YAP mRNA (mean ± SEM): 1.3 ± 0.39^a
YAP mRNA; HTM 431 cells, 5 kPa hydrogel
  Relative quantification of YAP mRNA (mean ± SEM): 1.6 ± 0.01^a, †
YAP mRNA; HTM 431 cells, 75 kPa hydrogel
  Relative quantification of YAP mRNA (mean ± SEM): 0.83 ± 0.05^b, †
YAP mRNA; HTM 431 cells, TCP (>1 GPa)
  Relative quantification of YAP mRNA (mean ± SEM): 0.55 ± 0.02^c, †
YAP mRNA; [3]
  decrease of YAP mRNA levels: 1.8 fold
YAP mRNA; cells grown on TCP
  YAP mRNA expression versus DMSO: did not have significantly different
YAP mRNA; cells grown on hydrogels
  YAP mRNA expression versus DMSO: significantly less
14-3-3σ mRNA; HTM 211 cells, 5 kPa hydrogel
  Relative quantification of 14-3-3σ mRNA (mean ± SEM): 15 ± 0.82^a
14-3-3σ mRNA; HTM 211 cells, 75 kPa hydrogel
  Relative quantification of 14-3-3σ mRNA (mean ± SEM): 29 ± 1.8^b, †
14-3-3σ mRNA; HTM 211 cells, TCP (>1 GPa)
  Relative quantification of 14-3-3σ mRNA (mean ± SEM): 1.2 ± 0.25^c
14-3-3σ mRNA; HTM 424 cells, 5 kPa hydrogel
  Relative quantification of 14-3-3σ mRNA (mean ± SEM): 4.8 ± 0.12^a, †
14-3-3σ mRNA; HTM 424 cells, 75 kPa hydrogel
  Relative quantification of 14-3-3σ mRNA (mean ± SEM): 5.6 ± 0.51^a, †
14-3-3σ mRNA; HTM 424 cells, TCP (>1 GPa)
  Relative quantification of 14-3-3σ mRNA (mean ± SEM): 0.73 ± 0.20^b ^
14-3-3σ mRNA; HTM 431 cells, 5 kPa hydrogel
  Relative quantification of 14-3-3σ mRNA (mean ± SEM): 1.09 ± 0.02^a ^
14-3-3σ mRNA; HTM 431 cells, 75 kPa hydrogel
  Relative quantification of 14-3-3σ mRNA (mean ± SEM): 1.57 ± 0.11^b, †
14-3-3σ mRNA; HTM 431 cells, TCP (>1 GPa)
  Relative quantification of 14-3-3σ mRNA (mean ± SEM): 0.53 ± 0.02^c, †
14-3-3σ mRNA; cells grown on TCP
  14-3-3σ mRNA expression versus DMSO: did not have significantly different
14-3-3σ mRNA; cells grown on hydrogels
  14-3-3σ mRNA expression versus DMSO: significantly more
14-3-3σ mRNA; softer (homeomimetic) hydrogels
  level of 14-3-3σ mRNA: no effect
14-3-3σ mRNA; stiffer (pathomimetic) hydrogels, listed as Lat B
  level of 14-3-3σ mRNA: increased
14-3-3σ mRNA; stiffer (pathomimetic) hydrogels, listed as Latrunculin B
  level of 14-3-3σ mRNA: doubled
14-3-3σ mRNA; stiffer hydrogels, all three donors (HTM 211, 424, 431)
  14-3-3σ expression versus DMSO: markedly increased
TAZ mRNA; [3]
  decrease of TAZ mRNA levels: 1.9 fold
TAZ mRNA; stiff (75 kPa) hydrogels, 3 donors, P=0.11
  TAZ mRNA versus DMSO: trend towards less; also recorded: markedly less
CTGF mRNA
  CTGF mRNA expression versus DMSO: significantly decreased; also recorded: significantly less
PAI-1 mRNA
  PAI-1 mRNA expression versus DMSO: less and decreased
YAP [1]; 5 kPa hydrogel
  YAP in the nucleus (nuclear localization): dramatic reduction
YAP [1]; TCP
  YAP nuclear localization: some nuclear localization remained
Myocilin (MYOC) mRNA; [4]
  MYOC mRNA levels: significantly reduced
Myocilin (MYOC) mRNA; [5]
  MYOC mRNA levels: significantly decreased
Myocilin (MYOC) mRNA; [6]
  MYOC mRNA levels: no change
SPARC mRNA; [4]
  SPARC mRNA levels: significantly reduced
SPARC mRNA; [5]
  SPARC mRNA levels: significantly decreased
SPARC mRNA; [6]
  SPARC mRNA levels: no change

## C=CCNC1=C2C[C@@H](C)C[C@H](OC)[C@H](O)[C@@H](C)/C=C(\C)[C@H](OC(N)=O)[C@@H](OC)/C=C\C=C(/C)C(=O)NC(=CC1=O)C2=O [17-allylamino-17-demethoxygelanamycin]
HSP90
  reduction of the amount of HSP90: 50%
YAP [2]
  expression of YAP: increased expression
